Experimental data from PubChem BioAssay (NCI).
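Dose response: 5 concentrations. Exposure: 48 h. Format: 96-well plates. Endpoint: linear interpolation; highest concentration if not reached. GI50 is the concentration that inhibits growth by half. At the TGI there is no net growth.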

Assays:
Test in all cases: growth of human tumour cells (NCI), 48 h
[1] = tested on: 786-0 renal
[2] = tested on: A498 renal
[3] = tested on: A549 NSCLC
[4] = tested on: ACHN renal
[5] = tested on: BT-549 breast
[6] = tested on: CAKI-1 renal
[7] = tested on: CCRF-CEM leukemia
[8] = tested on: COLO 205 colon
[9] = tested on: DU-145 prostate
[10] = tested on: EKVX NSCLC
[11] = tested on: HCC-2998 colon
[12] = tested on: HCT-116 colon
[13] = tested on: HCT-15 colon
[14] = tested on: HL-60(TB) leukemia
[15] = tested on: HOP-62 NSCLC
[16] = tested on: HOP-92 NSCLC
[17] = tested on: HS 578T breast
[18] = tested on: HT29 colon
[19] = tested on: IGROV1 ovarian
[20] = tested on: K-562 leukemia
[21] = tested on: KM12 colon
[22] = tested on: LOX IMVI melanoma
[23] = tested on: M14 melanoma
[24] = tested on: MALME-3M melanoma
[25] = tested on: MCF7 breast
[26] = tested on: MDA-MB-231 breast
[27] = tested on: MDA-MB-435
[28] = tested on: MDA-MB-468 breast
[29] = tested on: MOLT-4 leukemia
[30] = tested on: NCI-H226 lung
[31] = tested on: NCI-H23 lung
[32] = tested on: NCI-H460 lung
[33] = tested on: NCI-H522 lung
[34] = tested on: NCI/ADR-RES ovarian
[35] = tested on: OVCAR-3 ovarian
[36] = tested on: OVCAR-4 ovarian
[37] = tested on: OVCAR-5 ovarian
[38] = tested on: OVCAR-8 ovarian
[39] = tested on: PC-3 prostate
[40] = tested on: RPMI-8226 leukemia
[41] = tested on: RXF 393 renal
[42] = tested on: SF-268 CNS
[43] = tested on: SF-295 CNS
[44] = tested on: SF-539 CNS
[45] = tested on: SK-MEL-2 melanoma
[46] = tested on: SK-MEL-28 melanoma
[47] = tested on: SK-MEL-5 melanoma
[48] = tested on: SK-OV-3 ovarian
[49] = tested on: SN12C renal
[50] = tested on: SNB-19 CNS
[51] = tested on: SNB-75 CNS
[52] = tested on: SR leukemia
[53] = tested on: SW-620 colon
[54] = tested on: T-47D breast
[55] = tested on: TK-10 renal
[56] = tested on: U251 CNS
[57] = tested on: UACC-257 melanoma
[58] = tested on: UACC-62 melanoma
[59] = tested on: UO-31 renal

Structure (SMILES): COc1ccccc1-n1cc(C#N)c(N)c1C(=O)c1ccc(Cl)cc1Cl
- GI50 [1]: 7.12 µM
- TGI [1]: > 100 µM
- GI50 [2]: 72 µM
- TGI [2]: > 100 µM
- GI50 [3]: 7.39 µM
- TGI [3]: > 100 µM
- GI50 [4]: 7.79 µM
- TGI [4]: > 100 µM
- GI50 [5]: 3.41 µM
- TGI [5]: 58.5 µM
- GI50 [6]: 4.7 µM
- TGI [6]: 28.4 µM
- GI50 [7]: 4.68 µM
- TGI [7]: > 100 µM
- GI50 [8]: 5.7 µM
- TGI [8]: > 100 µM
- GI50 [9]: 9.73 µM
- TGI [9]: > 100 µM
- GI50 [10]: 8.24 µM
- TGI [10]: > 100 µM
- GI50 [11]: 12.4 µM
- TGI [11]: > 100 µM
- GI50 [12]: 4.02 µM
- TGI [12]: 28.7 µM
- GI50 [13]: 3.62 µM
- TGI [13]: 64.9 µM
- GI50 [14]: 3.15 µM
- TGI [14]: 70.4 µM
- GI50 [15]: 6.4 µM
- TGI [15]: 87.7 µM
- GI50 [16]: 16.8 µM
- TGI [16]: > 100 µM
- GI50 [17]: 3.02 µM
- TGI [17]: 58.1 µM
- GI50 [18]: 3.18 µM
- TGI [18]: > 100 µM
- GI50 [19]: 7.49 µM
- TGI [19]: > 100 µM
- GI50 [20]: 3.63 µM
- TGI [20]: > 100 µM
- GI50 [21]: 3.9 µM
- TGI [21]: > 100 µM
- GI50 [22]: 4.89 µM
- TGI [22]: > 100 µM
- GI50 [23]: 3.27 µM
- TGI [23]: > 100 µM
- GI50 [24]: 4.2 µM
- TGI [24]: > 100 µM
- GI50 [25]: 3.94 µM
- TGI [25]: 35.2 µM
- GI50 [26]: 9.05 µM
- TGI [26]: > 100 µM
- GI50 [27]: 1.92 µM
- TGI [27]: 4.41 µM
- GI50 [28]: 2.48 µM
- TGI [28]: 8.82 µM
- GI50 [29]: 4.84 µM
- TGI [29]: > 100 µM
- GI50 [30]: 5.79 µM
- TGI [30]: 64.3 µM
- GI50 [31]: 7.55 µM
- TGI [31]: > 100 µM
- GI50 [32]: 4.66 µM
- TGI [32]: > 100 µM
- GI50 [33]: 1.87 µM
- TGI [33]: 5.12 µM
- GI50 [34]: 3.55 µM
- TGI [34]: 64.2 µM
- GI50 [35]: 3.86 µM
- TGI [35]: 18.6 µM
- GI50 [36]: 8.96 µM
- TGI [36]: > 100 µM
- GI50 [37]: 9.71 µM
- TGI [37]: > 100 µM
- GI50 [38]: 21 µM
- TGI [38]: > 100 µM
- GI50 [39]: 5.6 µM
- TGI [39]: > 100 µM
- GI50 [40]: 9.39 µM
- TGI [40]: > 100 µM
- GI50 [41]: 4.37 µM
- TGI [41]: 39.3 µM
- GI50 [42]: 9.77 µM
- TGI [42]: > 100 µM
- GI50 [43]: 3.72 µM
- TGI [43]: 27 µM
- GI50 [44]: 3.37 µM
- TGI [44]: 11.5 µM
- GI50 [45]: 2.69 µM
- TGI [45]: 7.5 µM
- GI50 [46]: 7.58 µM
- TGI [46]: > 100 µM
- GI50 [47]: 4.84 µM
- TGI [47]: > 100 µM
- GI50 [48]: 3.36 µM
- TGI [48]: 28.3 µM
- GI50 [49]: 5.24 µM
- TGI [49]: > 100 µM
- GI50 [50]: 6.6 µM
- TGI [50]: 61.6 µM
- GI50 [51]: 2.61 µM
- TGI [51]: 8.54 µM
- GI50 [52]: 3.53 µM
- TGI [52]: > 100 µM
- GI50 [53]: 3.98 µM
- TGI [53]: > 100 µM
- GI50 [54]: 4.53 µM
- TGI [54]: > 100 µM
- GI50 [55]: 52.9 µM
- TGI [55]: > 100 µM
- GI50 [56]: 4.45 µM
- TGI [56]: > 100 µM
- GI50 [57]: 6.31 µM
- TGI [57]: > 100 µM
- GI50 [58]: 3.67 µM
- TGI [58]: 42.8 µM
- GI50 [59]: 7.87 µM
- TGI [59]: > 100 µM
